One test has as its system HSC. To be noted: in vivo; cited from earlier work.
The test system of test [1] is lymphoma mutations and genetic variations. To be noted: single dose of 20 mg, blood 12 hours later, vs control group bone marrow.
Protocol: Human patients who are diagnosed with lymphoma are split into two experimental groups, an “LBYE” group and a “control group.” Patients may be matched across experimental groups by age, sex, and other clinical factors, such as lymphoma burden or genetic profile of the lymphoma in the patient.
Patients in the “LBYE” experimental group are administered a single dose of 20 mg plerixafor and undergo blood sampling 12 hours later. This sample is analyzed for the presence of various mutations and genetic variations known to influence prognosis in myeloma. […] In a variation on the above experiment, the LBYE group patients undergo a bone marrow examination which is subjected to appropriate testing.
In another variation on the experiment, the LBYE group's marrow and blood sample are pooled and analyzed in a single assay to make the test more cost-effective. […] The mononuclear cell fraction is analyzed for the presence of lymphoma CTCs by multiparametric flow cytometry according to methods described herein. Lymphoma CTCs are genetically profiled, e.g., by sequencing to determine the mutational profile of the CTCs. Mutational profile of the CTC sample is, in some cases, compared to mutational profile of lymphoma cells obtained from bone marrow sample from the same patient.
A further test has as its system cfDNA / ctDNA. To be noted: plasma. Here is the method:
Cell-free DNA (cfDNA) is isolated from patient plasma samples according to known methods. The concentration of the isolated cfDNA from LBYE and control patients are determined.

The test system of test [2] is multiple myeloma residual disease (diseased cells mobilized into blood). As for the experimental part: Patients may be matched across experimental groups by age, sex, and other clinical factors, such as multiple myeloma burden or genetic profile of the multiple myeloma in the patient. When in complete remission using conventional techniques after appropriate therapy, patients in the control group undergo a blood as well as bone marrow examination each of which is subjected to MRD detection/assay using the ClonoSEQ® technique (Adaptive Biotechnologies). […] About 12 hours after plerixafor administration, patients in the LBYE group undergo a blood draw. The blood samples are subjected to MRD assay using the ClonoSEQ® technique. […] In another variation of the experiment, where myeloma patients serve as their own controls, patients undergo bone marrow examination after attaining complete remission. The marrow is subjected to MRD assay by ClonoSEQ®. After the marrow exam is done, each patient receives 20 mg plerixafor and the blood is sampled 12 hours later. Blood samples are subjected to MRD assay by ClonoSEQ®.

The test system of test [3] is solid tumor residual disease (diseased cells mobilized into blood). As for the experimental part:
When in complete remission using conventional techniques after appropriate therapy, patients in the control group undergo a blood examination each of which is subjected to MRD detection/assay using an appropriate assay (e.g. The Guardant 360 liquid biopsy or the Tempus XF liquid biopsy). […] About 12 hours after plerixafor administration, patients in the LBYE group undergo a blood draw. The blood samples are subjected to the same MRD assay.
In another variation of the experiment, where cancer patients serve as their own controls, patients undergo blood examination after attaining complete remission. Afterwards, each patient receives 20 mg plerixafor and the blood is sampled 12 hours later. Both samples are subjected to MRD assay.

Test [4] has as its system lymphoma residual disease (diseased cells mobilized into blood). Here is the method: About 12 hours after plerixafor administration, patients in the LBYE group undergo a blood draw. The blood samples are subjected to MRD assay. […] In another variation of the experiment, where lymphoma patients serve as their own controls, patients undergo blood sampling after attaining complete remission. The blood is subjected to MRD assay. After the blood test is done, each patient receives 20 mg plerixafor and the blood is sampled 12 hours later. These blood samples are subjected to MRD assay by the same technique.

The subject of test [5] is solid tumor mutations and genetic variations. The settings on record: single dose of 20 mg, blood 12 hours later, vs control group solid tumor examination.
Protocol: Human patients who are diagnosed with one or more solid tumors are split into two experimental groups, an “LBYE” group and a “control group.” Patients may be matched across experimental groups by age, sex, and other clinical factors, such as solid tumor burden or genetic profile of the solid tumor in the patient.
Patients in the “LBYE” experimental group are administered a single dose of 20 mg plerixafor and undergo blood sampling 12 hours later. This sample is analyzed for the presence of various mutations and genetic variations known to influence prognosis in myeloma. […] In a variation on the above experiment, the LBYE group patients undergo a solid tumor examination which is subjected to appropriate testing.
In another variation on the experiment, the LBYE group's tumor and blood samples are pooled and analyzed in a single assay to make the test more cost-effective. […] The mononuclear cell fraction is analyzed for the presence of solid tumor CTCs by multiparametric flow cytometry according to methods described herein. Solid tumor CTCs are genetically profiled, e.g., by sequencing to determine the mutational profile of the CTCs. Mutational profile of the CTC sample is, in some cases, compared to mutational profile of solid tumor cells obtained from solid tumor sample from the same patient.
The subject of test [6] is multiple myeloma mutations and genetic variations. To be noted: single dose of 20 mg, blood 12 hours later, vs control group bone marrow. The source says:
Patients may be matched across experimental groups by age, sex, and other clinical factors, such as multiple myeloma burden or genetic profile of the multiple myeloma in the patient.

[7] abbreviates: complete remission, single 20 mg dose, blood about 12 hours after, vs control group blood and bone marrow.
The mark [8] stands for this setting: patients as own controls, 20 mg, blood 12 hours later.

Like-named read-outs stand apart in the source and are kept apart here.

Take `c1cc(CN2CCCNCCNCCCNCC2)ccc1CN1CCCNCCNCCCNCC1` [plerixafor, 1-{[4-(1,4,8,11-tetrazacyclotetradec-1-ylmethyl)phenyl]methyl}-1,4,8,11-tetrazacyclotetradecane]: the “Mobilization of HSC” value in the test with HSC is recorded as “rapidly mobilize HSC within hours”. In addition, the “Frequency and breadth of abnormalities (mutations and genetic variations)” value is “greater frequency and breadth of abnormalities than those in the control group” in test [1]; “greater frequency and breadth of abnormalities than those in the control group” in test [5]; “greater frequency and breadth of abnormalities than those in the control group” in test [6]. For the same compound, the “cfDNA concentration/amount after LBYE” value with cfDNA / ctDNA (lymphoma, patients as own controls, amongst patients positive for MRD) is “the concentration/amount of cfDNA is higher after LBYE”. The “cfDNA concentration, LBYE group vs control group” value in the test on cfDNA / ctDNA (multiple myeloma) and in the test with cfDNA / ctDNA (solid tumor) was “higher cfDNA concentrations than patients in the control group” in each case. Further, in test [2] (setting [7]), the “Number of patients with residual disease detected (MRD assay, ClonoSEQ)” value is given as “Residual disease is detected in a greater number of patients in the LBYE group than in the control group”. The “Proportion of patients positive for MRD, blood after LBYE vs bone marrow” value in test [2] (patients as own controls, 20 mg, blood 12 hours later, ClonoSEQ) is reported as “A greater proportion of patients is found to be positive for MRD from the blood after the LBYE technique than the bone marrow”. In addition, the “Number of patients with residual disease detected (MRD assay)” value is recorded as “Residual disease is detected in a greater number of patients in the LBYE group than in the control group” in test [3] (complete remission, single 20 mg dose, blood about 12 hours after, vs control group blood) and “Residual disease is detected in a greater number of patients in the LBYE group than in the control group” in test [4] (setting [7]). The “Proportion of patients positive for MRD, post- vs pre-plerixafor blood sample” value in test [3] (setting [8]) was “A greater proportion of patients is found to be positive for MRD from the blood sample obtained after plerixafor administration, as compared to the pre-plerixafor blood sample”. Besides, in test [4] (setting [8]), the “Proportion of patients positive for MRD, blood after LBYE vs non-LBYE blood sample” value is “A greater proportion of patients is found to be positive for MRD from the blood after the LBYE technique than the non-LBYE blood sample”.
